According to ChEMBL document CHEMBL4507298 (2021):

Legend:
[1] = species: Rattus norvegicus; conditions: Compound concentration 10.0 uM
[2] = target: Mitogen-activated protein kinase kinase kinase 5 (Homo sapiens) (UniProt Q99683); conditions: Compound concentration 1000.0 nM
[3] = target: Beta-2 adrenergic receptor (Homo sapiens) (UniProt P07550); test: beta 2 (h) CEREP ligand profiling; conditions: Compound concentration 10.0 uM
[4] = target: T1, Alpha-2C adrenergic receptor (Homo sapiens) (UniProt P18825); test: alpha 2C (h) CEREP ligand profiling; conditions: Compound concentration 10.0 uM
T1 sequence (whole entry): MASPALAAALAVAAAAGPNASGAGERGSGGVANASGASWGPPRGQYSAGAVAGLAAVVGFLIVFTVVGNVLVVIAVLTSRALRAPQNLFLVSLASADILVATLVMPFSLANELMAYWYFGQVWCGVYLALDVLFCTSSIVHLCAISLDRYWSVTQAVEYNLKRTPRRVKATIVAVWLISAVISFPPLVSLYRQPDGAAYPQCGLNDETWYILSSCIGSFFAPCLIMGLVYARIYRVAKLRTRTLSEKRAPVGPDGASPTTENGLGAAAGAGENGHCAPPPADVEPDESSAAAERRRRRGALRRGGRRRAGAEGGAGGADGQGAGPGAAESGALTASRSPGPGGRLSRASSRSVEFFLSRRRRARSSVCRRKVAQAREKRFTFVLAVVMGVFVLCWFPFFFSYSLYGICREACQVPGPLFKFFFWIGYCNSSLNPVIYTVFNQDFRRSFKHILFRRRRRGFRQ

[5] = target: Ephrin type-A receptor 1 (Homo sapiens) (UniProt P21709); conditions: Compound concentration 1000.0 nM
[6] = target: Dual specificity mitogen-activated protein kinase kinase 5 (Homo sapiens) (UniProt Q13163); conditions: Compound concentration 1000.0 nM
[7] = target: Serine/threonine-protein kinase PAK 2 (Homo sapiens) (UniProt Q13177); conditions: Compound concentration 1000.0 nM
[8] = target: Muscle, skeletal receptor tyrosine-protein kinase (Homo sapiens) (UniProt O15146); conditions: Compound concentration 1000.0 nM
[9] = target: Vascular endothelial growth factor receptor 3 (Homo sapiens) (UniProt P35916); conditions: Compound concentration 1000.0 nM
[10] = target: T2, Muscarinic acetylcholine receptor M5 (Homo sapiens) (UniProt P08912); test: M5 (h) CEREP ligand profiling; conditions: Compound concentration 10.0 uM
T2 sequence (whole entry): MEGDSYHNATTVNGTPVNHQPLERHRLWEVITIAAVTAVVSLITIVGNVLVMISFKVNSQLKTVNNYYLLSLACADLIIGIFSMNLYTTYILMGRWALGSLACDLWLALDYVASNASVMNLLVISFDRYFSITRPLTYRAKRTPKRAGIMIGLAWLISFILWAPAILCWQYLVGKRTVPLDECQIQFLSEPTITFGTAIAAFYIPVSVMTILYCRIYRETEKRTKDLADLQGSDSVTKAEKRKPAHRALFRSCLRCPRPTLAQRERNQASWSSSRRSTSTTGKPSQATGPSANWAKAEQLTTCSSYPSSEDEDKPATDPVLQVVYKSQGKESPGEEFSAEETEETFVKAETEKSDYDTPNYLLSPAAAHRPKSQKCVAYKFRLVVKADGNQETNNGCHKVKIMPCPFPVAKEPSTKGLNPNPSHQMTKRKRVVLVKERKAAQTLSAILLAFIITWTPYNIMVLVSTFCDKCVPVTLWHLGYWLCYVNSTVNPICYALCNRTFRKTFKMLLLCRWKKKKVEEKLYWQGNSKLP

[11] = target: Mitogen-activated protein kinase kinase kinase 6 (Homo sapiens) (UniProt O95382); conditions: Compound concentration 1000.0 nM
[12] = target: Serine/threonine-protein kinase D3 (Homo sapiens) (UniProt O94806); conditions: Compound concentration 1000.0 nM
[13] = target: Sodium- and chloride-dependent GABA transporter 1 (Homo sapiens) (UniProt P30531); test: GABA transporter CEREP ligand profiling; conditions: Compound concentration 10.0 uM
[14] = target: Dual specificity protein kinase CLK1 (Homo sapiens) (UniProt P49759); conditions: Compound concentration 1000.0 nM
[15] = target: Ankyrin repeat and protein kinase domain-containing protein 1 (Homo sapiens) (UniProt Q8NFD2); conditions: Compound concentration 1000.0 nM
[16] = target: Serine/threonine-protein kinase 33 (Homo sapiens) (UniProt Q9BYT3); conditions: Compound concentration 1000.0 nM
[17] = target: Acetylcholine receptor, muscle-type, subunit alpha-1 (Homo sapiens) (UniProt P02708); test: N (muscle-type) (h) CEREP ligand profiling; conditions: Compound concentration 10.0 uM
[18] = target: Vasopressin V1a receptor (Homo sapiens) (UniProt P37288); test: V1a (h) CEREP ligand profiling; conditions: Compound concentration 10.0 uM
[19] = target: Ribosomal protein S6 kinase alpha-3 (Homo sapiens) (UniProt P51812); conditions: Compound concentration 1000.0 nM
[20] = target: SRSF protein kinase 1 (Homo sapiens) (UniProt Q96SB4); conditions: Compound concentration 1000.0 nM
[21] = target: Serine/threonine-protein kinase D1 (Homo sapiens) (UniProt Q15139); conditions: Compound concentration 1000.0 nM
[22] = target: Endothelin-1 receptor (Homo sapiens) (UniProt P25101); test: ETA (h) CEREP ligand profiling; conditions: Compound concentration 10.0 uM
[23] = target: Homeodomain-interacting protein kinase 2 (Homo sapiens) (UniProt Q9H2X6); conditions: Compound concentration 1000.0 nM
[24] = tested on: Fibroblast growth factor receptor 3 (Homo sapiens), P22607 [G697C]; conditions: Compound concentration 1000.0 nM
[25] = target: Mitogen-activated protein kinase kinase kinase 11 (Homo sapiens) (UniProt Q16584); conditions: Compound concentration 1000.0 nM
[26] = target: Serine/threonine-protein kinase Chk1 (Homo sapiens) (UniProt O14757); conditions: Compound concentration 1000.0 nM
[27] = target: Transient receptor potential cation channel subfamily M member 6 (Homo sapiens) (UniProt Q9BX84); conditions: Compound concentration 1000.0 nM
[28] = target: Serine/threonine-protein kinase/endoribonuclease IRE1 (Homo sapiens) (UniProt O75460); conditions: Compound concentration 1000.0 nM
[29] = target: Serine/threonine-protein kinase 16 (Homo sapiens) (UniProt O75716); conditions: Compound concentration 1000.0 nM
[30] = target: Cyclin-dependent kinase 19 (Homo sapiens) (UniProt Q9BWU1); conditions: Compound concentration 1000.0 nM
[31] = target: Muscarinic acetylcholine receptor M3 (Homo sapiens) (UniProt P20309); test: M3 (h) CEREP ligand profiling; conditions: Compound concentration 10.0 uM
[32] = target: cGMP-specific 3',5'-cyclic phosphodiesterase (Homo sapiens) (UniProt O76074); test: PDE5 (h) CEREP ligand profiling; conditions: Compound concentration 10.0 uM

Chain of SRSF protein kinase 1 (Homo sapiens) (Q96SB4 whole entry): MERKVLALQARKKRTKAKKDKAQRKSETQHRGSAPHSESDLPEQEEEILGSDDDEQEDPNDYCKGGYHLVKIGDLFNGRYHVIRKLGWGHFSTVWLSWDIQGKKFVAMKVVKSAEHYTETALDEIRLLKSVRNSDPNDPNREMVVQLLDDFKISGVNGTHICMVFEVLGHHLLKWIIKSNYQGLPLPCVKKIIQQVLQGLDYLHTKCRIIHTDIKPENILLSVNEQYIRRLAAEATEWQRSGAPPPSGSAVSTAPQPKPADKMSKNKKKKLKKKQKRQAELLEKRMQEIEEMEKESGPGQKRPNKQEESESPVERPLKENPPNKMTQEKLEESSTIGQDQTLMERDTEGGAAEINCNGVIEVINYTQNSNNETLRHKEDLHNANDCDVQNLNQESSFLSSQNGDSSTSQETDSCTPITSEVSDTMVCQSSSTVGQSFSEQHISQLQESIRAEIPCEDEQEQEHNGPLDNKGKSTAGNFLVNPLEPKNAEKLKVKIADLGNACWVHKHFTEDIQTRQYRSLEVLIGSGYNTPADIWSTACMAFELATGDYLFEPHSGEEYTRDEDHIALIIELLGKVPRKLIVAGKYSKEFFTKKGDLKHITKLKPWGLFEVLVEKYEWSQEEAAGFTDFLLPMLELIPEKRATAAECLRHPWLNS
Chain of Mitogen-activated protein kinase kinase kinase 11 (Homo sapiens) (Q16584 whole entry, looked up): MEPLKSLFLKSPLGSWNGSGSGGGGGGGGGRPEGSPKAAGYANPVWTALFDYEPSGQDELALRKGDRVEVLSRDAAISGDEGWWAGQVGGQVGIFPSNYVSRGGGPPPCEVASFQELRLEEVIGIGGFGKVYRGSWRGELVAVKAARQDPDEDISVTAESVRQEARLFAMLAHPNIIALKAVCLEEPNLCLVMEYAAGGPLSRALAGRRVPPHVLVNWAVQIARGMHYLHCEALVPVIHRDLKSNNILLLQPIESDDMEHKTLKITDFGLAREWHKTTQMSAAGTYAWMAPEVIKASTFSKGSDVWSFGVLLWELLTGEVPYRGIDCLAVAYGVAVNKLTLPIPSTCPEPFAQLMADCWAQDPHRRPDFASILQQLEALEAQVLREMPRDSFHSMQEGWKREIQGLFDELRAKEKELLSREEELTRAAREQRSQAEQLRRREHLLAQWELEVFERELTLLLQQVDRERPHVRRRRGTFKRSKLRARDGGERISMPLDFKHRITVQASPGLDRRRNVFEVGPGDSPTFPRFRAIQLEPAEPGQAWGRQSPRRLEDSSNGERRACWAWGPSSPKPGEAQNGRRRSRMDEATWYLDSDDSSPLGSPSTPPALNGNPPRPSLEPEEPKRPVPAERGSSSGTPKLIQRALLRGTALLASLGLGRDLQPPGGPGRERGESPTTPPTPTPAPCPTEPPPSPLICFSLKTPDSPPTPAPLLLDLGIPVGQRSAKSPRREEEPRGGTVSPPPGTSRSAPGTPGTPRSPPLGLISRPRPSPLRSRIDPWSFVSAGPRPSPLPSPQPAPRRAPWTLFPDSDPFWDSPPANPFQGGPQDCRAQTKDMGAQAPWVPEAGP
Chain of Ankyrin repeat and protein kinase domain-containing protein 1 (Homo sapiens) (Q8NFD2 whole entry, the tested form may be a part): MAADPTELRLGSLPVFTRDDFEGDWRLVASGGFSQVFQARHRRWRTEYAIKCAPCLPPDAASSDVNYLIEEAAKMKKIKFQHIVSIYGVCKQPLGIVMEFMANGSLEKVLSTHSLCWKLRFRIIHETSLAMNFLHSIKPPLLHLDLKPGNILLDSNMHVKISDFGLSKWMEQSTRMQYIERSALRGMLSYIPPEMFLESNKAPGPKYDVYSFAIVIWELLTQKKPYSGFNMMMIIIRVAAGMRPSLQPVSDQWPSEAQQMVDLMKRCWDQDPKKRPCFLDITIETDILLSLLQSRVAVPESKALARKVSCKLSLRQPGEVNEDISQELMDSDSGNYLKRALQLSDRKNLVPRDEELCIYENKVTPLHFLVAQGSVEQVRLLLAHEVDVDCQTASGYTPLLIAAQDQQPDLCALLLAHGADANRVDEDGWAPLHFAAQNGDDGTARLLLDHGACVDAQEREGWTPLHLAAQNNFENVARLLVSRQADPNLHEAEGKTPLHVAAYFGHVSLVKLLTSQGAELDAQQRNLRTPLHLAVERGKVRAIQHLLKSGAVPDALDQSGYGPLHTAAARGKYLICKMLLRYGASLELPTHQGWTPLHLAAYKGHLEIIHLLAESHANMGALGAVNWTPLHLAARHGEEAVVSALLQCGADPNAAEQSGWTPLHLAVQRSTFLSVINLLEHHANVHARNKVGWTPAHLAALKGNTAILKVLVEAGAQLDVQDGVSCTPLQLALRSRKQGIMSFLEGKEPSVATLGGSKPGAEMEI
Chain of Vasopressin V1a receptor (Homo sapiens) (P37288 whole entry, looked up): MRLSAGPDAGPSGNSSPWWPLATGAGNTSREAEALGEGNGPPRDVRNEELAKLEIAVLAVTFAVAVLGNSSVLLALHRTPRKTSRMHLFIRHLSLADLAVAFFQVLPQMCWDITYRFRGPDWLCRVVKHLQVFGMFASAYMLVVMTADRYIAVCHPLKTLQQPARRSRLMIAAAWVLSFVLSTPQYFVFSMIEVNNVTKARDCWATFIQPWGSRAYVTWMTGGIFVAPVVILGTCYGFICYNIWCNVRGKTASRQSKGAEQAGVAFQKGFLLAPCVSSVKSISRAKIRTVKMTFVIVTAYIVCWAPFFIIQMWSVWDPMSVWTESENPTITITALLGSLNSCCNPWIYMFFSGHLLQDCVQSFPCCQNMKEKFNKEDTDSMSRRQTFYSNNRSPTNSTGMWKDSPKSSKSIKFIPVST
Chain of Serine/threonine-protein kinase D1 (Homo sapiens) (Q15139 whole entry): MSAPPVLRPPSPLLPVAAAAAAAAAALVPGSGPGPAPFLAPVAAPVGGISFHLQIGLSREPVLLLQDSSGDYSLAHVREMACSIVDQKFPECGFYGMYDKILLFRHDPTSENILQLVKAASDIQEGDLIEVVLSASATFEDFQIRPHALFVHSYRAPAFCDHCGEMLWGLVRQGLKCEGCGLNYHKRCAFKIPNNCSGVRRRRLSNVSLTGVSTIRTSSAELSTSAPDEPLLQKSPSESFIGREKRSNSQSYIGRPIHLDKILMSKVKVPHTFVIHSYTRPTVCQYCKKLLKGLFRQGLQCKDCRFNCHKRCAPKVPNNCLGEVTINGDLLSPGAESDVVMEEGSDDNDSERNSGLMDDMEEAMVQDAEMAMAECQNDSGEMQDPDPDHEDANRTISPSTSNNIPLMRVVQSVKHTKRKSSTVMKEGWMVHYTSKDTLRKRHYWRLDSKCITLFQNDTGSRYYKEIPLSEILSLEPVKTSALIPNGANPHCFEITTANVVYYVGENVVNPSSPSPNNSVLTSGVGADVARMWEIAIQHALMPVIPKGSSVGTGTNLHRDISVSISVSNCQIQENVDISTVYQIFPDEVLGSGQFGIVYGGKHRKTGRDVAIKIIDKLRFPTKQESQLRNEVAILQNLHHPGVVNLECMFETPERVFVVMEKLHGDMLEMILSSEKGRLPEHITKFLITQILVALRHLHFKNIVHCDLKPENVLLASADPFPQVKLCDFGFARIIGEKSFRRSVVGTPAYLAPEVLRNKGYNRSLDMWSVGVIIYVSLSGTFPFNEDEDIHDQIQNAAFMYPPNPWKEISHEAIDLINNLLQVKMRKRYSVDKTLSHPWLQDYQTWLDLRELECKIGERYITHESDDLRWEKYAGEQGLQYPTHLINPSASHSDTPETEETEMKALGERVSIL
Chain of Cyclin-dependent kinase 19 (Homo sapiens) (Q9BWU1 whole entry): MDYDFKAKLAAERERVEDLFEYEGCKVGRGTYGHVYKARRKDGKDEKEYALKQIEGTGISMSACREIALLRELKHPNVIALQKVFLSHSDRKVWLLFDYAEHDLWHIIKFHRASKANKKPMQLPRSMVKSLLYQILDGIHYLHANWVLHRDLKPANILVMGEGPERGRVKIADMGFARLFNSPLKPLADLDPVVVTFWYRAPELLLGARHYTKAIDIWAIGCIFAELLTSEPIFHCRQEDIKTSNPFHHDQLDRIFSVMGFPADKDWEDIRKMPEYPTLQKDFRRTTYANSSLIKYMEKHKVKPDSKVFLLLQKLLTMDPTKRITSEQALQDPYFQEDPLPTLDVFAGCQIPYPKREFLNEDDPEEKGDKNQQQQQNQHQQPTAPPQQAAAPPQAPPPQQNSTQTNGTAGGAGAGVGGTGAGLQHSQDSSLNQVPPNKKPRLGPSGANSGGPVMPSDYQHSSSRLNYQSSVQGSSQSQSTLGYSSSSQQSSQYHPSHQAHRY
Chain of Muscarinic acetylcholine receptor M3 (Homo sapiens) (P20309 whole entry, looked up): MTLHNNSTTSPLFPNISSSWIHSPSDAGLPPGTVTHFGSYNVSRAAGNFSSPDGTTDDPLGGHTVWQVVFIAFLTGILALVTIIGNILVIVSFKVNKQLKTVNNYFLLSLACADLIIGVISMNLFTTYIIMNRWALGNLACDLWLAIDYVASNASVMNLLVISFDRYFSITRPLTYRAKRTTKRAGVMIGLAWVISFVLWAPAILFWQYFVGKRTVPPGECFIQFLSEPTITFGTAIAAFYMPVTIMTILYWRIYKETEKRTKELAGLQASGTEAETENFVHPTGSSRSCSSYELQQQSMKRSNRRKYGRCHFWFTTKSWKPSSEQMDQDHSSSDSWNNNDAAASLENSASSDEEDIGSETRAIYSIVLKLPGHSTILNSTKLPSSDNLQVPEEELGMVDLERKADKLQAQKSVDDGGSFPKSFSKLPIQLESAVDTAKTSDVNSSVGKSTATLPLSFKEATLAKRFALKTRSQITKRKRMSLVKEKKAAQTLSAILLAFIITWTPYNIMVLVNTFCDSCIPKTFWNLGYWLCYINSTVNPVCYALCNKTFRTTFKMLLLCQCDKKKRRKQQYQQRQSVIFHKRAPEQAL
Chain of Serine/threonine-protein kinase 16 (Homo sapiens) (O75716 whole entry): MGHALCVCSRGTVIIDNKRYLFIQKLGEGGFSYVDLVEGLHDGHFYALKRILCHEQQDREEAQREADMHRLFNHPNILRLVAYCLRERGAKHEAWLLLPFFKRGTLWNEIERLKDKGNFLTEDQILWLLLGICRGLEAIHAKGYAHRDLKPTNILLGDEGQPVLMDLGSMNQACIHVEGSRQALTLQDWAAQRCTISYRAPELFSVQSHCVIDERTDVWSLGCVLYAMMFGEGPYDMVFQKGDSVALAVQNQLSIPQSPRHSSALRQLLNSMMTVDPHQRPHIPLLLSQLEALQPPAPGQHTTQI

O=C(c1ccc(F)cc1)N1CC(COc2ccc(Br)cc2)(C(=O)O)C1 [PF-04475866]
inactive: inhibition [1] 16.3%

COc1ccc2cc(OCC3(C(=O)O)CN(C(=O)c4ccc(F)cc4)C3)ccc2c1 [PF-04418948]
inactive: residual activity [2] 98% | inhibition [3] -4% | inhibition [4] 4% | residual activity [5] 83% | residual activity [6] 93% | residual activity [7] 83% | residual activity [8] 72% | residual activity [9] 75% | inhibition [10] 1% | residual activity [11] 95% | residual activity [12] 91% | inhibition [13] 14% | residual activity [14] 79% | residual activity [15] 86% | residual activity [16] 98% | inhibition [17] -10% | inhibition [18] -3% | residual activity [19] 85% | residual activity [20] 72% | residual activity [21] 96% | inhibition [22] 3% | residual activity [23] 78% | residual activity [24] 88% | residual activity [25] 79% | residual activity [26] 87% | residual activity [27] 98% | residual activity [28] 80% | residual activity [29] 88% | residual activity [30] 95% | inhibition [31] 1% | inhibition [32] 6%
